Reference: patent publication US10160756B2 (priority 2014, dated 2018)
Where two headings read alike, the source gives them in different places.

Key:
MARV VP40 (mVP40) VLPs = experiment: organism not typed; assay type: cell-based, Marburg virus (MARV)
EBOV VP40 (eVP40) VLPs = assay type: cell-based, Ebola virus (EBOV)
VSV-WT = assay type: cell-based, vesicular stomatitis virus (Indiana strain)
LFV Z VLPs = assay type: cell-based, Lassa fever virus (LFV)
VSV-M40 = assay type: cell-based, vesicular stomatitis virus
E-BiMC (Ebola VP40) = assay type: cell-based
mVP40-Nedd4 interaction = mVP40-Nedd4 interaction (Homo sapiens, UniProt P46934); assay type: cell-based
Chain of mVP40-Nedd4 interaction (P46934 whole entry): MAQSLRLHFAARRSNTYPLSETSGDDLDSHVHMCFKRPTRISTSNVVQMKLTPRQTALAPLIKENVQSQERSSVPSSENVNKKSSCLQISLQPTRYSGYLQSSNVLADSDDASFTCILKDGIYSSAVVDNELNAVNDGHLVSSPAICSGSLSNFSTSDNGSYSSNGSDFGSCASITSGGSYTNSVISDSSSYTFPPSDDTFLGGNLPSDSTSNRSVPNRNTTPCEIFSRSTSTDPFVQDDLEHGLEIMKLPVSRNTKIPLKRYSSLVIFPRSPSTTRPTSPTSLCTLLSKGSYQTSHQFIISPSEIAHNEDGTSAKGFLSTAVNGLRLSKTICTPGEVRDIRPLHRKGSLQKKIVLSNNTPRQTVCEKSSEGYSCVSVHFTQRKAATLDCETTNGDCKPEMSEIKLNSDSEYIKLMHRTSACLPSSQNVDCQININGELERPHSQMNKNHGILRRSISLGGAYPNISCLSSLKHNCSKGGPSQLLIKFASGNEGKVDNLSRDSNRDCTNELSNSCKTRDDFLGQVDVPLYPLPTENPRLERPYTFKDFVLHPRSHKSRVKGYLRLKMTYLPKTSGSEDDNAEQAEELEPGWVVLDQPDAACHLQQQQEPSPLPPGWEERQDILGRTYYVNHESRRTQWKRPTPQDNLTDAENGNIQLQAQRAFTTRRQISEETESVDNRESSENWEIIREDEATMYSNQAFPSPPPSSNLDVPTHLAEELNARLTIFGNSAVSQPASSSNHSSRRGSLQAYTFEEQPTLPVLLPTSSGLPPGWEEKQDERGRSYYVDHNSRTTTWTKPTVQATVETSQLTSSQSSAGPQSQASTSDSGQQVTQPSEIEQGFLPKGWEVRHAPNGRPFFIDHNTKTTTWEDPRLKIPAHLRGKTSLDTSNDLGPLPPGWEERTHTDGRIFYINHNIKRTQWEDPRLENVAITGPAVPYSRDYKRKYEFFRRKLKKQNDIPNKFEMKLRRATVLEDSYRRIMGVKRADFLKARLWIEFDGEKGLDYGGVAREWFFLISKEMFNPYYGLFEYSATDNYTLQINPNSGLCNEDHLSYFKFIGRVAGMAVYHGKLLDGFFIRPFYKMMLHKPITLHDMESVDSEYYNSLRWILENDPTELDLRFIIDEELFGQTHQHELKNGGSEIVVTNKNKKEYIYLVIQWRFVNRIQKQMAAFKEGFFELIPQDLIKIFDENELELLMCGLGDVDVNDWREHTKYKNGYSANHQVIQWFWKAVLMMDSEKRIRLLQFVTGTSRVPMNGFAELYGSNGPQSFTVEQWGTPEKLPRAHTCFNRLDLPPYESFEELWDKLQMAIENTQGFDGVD

Cc1nc2ccccc2nc1SCC(=O)NC(=O)NCC(F)(F)F [Compound 3, 2-((3-methylquinoxalin-2-yl)thio)-N-((2,2,2-trifluoroethyl)carbamoyl) acetamide]
activity in SAR studies, MVP40 VLP budding (words, FIG. 10) (MARV VP40 (mVP40) VLPs): very effective
inhibition of egress of mVP40 VLPs (MARV VP40 (mVP40) VLPs; 1.0 μM): 10 fold
inhibition of egress of mVP40 VLPs (MARV VP40 (mVP40) VLPs; 10 μM): 100 fold
inhibition of egress of mVP40 VLPs (MARV VP40 (mVP40) VLPs; 20 μM): 100 fold
inhibition of egress of eVP40 VLPs (EBOV VP40 (eVP40) VLPs; 1.0 μM): < 2 fold
inhibition of egress of eVP40 VLPs (EBOV VP40 (eVP40) VLPs; 10 μM): 4.5 fold
inhibition of egress of eVP40 VLPs (EBOV VP40 (eVP40) VLPs; 20 μM): 20 fold

O=C(CN1CCCC(c2nc3ccccc3s2)C1)NCCOc1ccccc1 (stereo not shown) [Compound 2e, 2-(3-(benzo[d]thiazol-2-yl)piperidin-1-yl)-N-(2-phenoxyethyl)acetamide]
activity in the M VP40 budding assay (MARV VP40 (mVP40) VLPs; 10 μM): active

Cc1n[nH]c(C)c1NC(=O)CN1CCN(c2nc3ccccc3s2)CC1 [Compound 2g, 2-(4-(benzo[d]thiazol-2-yl)piperazin-1-yl)-N-(3,5-dimethyl-1H-pyrazol-4-yl)acetamide]
activity in SAR studies, MVP40 VLP budding (words, FIG. 10) (MARV VP40 (mVP40) VLPs): inactive

Cc1nc2ccccc2nc1SCC(=O)NC(=O)NCc1cccs1 [Compound 3i, 2-((3-methylquinoxalin-2-yl)thio)-N-((thiophen-2-ylmethyl)carbamoyl)acetamide]
potency relative to 3 in the MVP40 budding assay (MARV VP40 (mVP40) VLPs): as or more potent than 3

O=C(CN1CCCC(c2nc3ccccc3s2)C1)NC(=O)NCC(F)(F)F (stereo not shown) [Compound 1, 2-(3-(benzo[d]thiazol-2-yl)piperidin-1-yl)-N-((2,2,2-trifluoroethyl)carbamoyl) acetamide]
inhibition of egress of mVP40 VLPs (MARV VP40 (mVP40) VLPs; 20 μM): ~5 fold
reduction of budding of VSV-WT (VSV-WT; 10 μM): approximately 5 fold

Cc1nc2ccccc2nc1SCC(=O)NC(=O)NC1CC1 [Compound 3g, N-(cyclopropylcarbamoyl)-2-((3-methylquinoxalin-2-yl)thio)acetamide]
potency relative to 3 in the MVP40 budding assay (MARV VP40 (mVP40) VLPs): as or more potent than 3

Cc1nn(-c2ccccc2)c(C)c1NC(=O)CN1CCCC(c2nc3ccccc3s2)C1 (stereo not shown) [Compound 4, 2-(3-(benzo[d]thiazol-2-yl)piperidin-1-yl)-N-(3,5-dimethyl-1-phenyl-1H-pyrazol-4-yl)acetamide]
activity in SAR studies, MVP40 VLP budding (words, FIG. 10) (MARV VP40 (mVP40) VLPs): sub-micromolar
budding of mVP40 VLPs reduced (MARV VP40 (mVP40) VLPs): > 90%
inhibition of egress of mVP40 VLPs (MARV VP40 (mVP40) VLPs; 0.5 μM): 30 fold
inhibition of egress of mVP40 VLPs (MARV VP40 (mVP40) VLPs; 1.0 μM): 100 fold
PPxY-dependent budding of VSV reduced (VSV-WT; 0.1 μM): approximately 50%
PPxY-dependent budding of VSV reduced (VSV-WT; 0.5 μM): ~100%
inhibition of egress of VSV-WT (VSV-WT; 0.5 μM): approximately 20 fold
inhibition of egress of live VSV-WT (VSV-WT; 0.5 μM): more than 1 log
titer of VSV-WT (VSV-WT; 0.5 μM): 1.8×10^6 pfu/ml
inhibition of egress of eVP40 VLPs (EBOV VP40 (eVP40) VLPs; 0.5 μM): 3 fold
inhibition of egress of eVP40 VLPs (EBOV VP40 (eVP40) VLPs; 1.0 μM): 10 fold
inhibition of egress of LFV Z VLPs (LFV Z VLPs; 0.5 μM): > 5 fold
inhibition of egress of VSV-M40 (VSV-M40; 0.1 μM): approximately 2 fold
inhibition of egress of VSV-M40 (VSV-M40; 0.5 μM): 3 fold

Cc1n[nH]c(C)c1NC(=O)CN1CCCC(c2nc3ccccc3s2)C1 (stereo not shown) [Compound 2, 2-(3-(benzo[d]thiazol-2-yl)piperidin-1-yl)-N-(3,5-dimethyl-1H-pyrazol-4-yl) acetamide]
inhibition of egress of Marburg (M) VP40 VLPs (MARV VP40 (mVP40) VLPs; 20 μM): nearly full inhibition
inhibition of egress of mVP40 VLPs (MARV VP40 (mVP40) VLPs; 20 μM): 33 fold
inhibition of egress of mVP40 VLPs (MARV VP40 (mVP40) VLPs; 40 μM): 100 fold
inhibition of budding of live wild type VSV (VSV-WT): significantly inhibited
inhibition of egress of eVP40 VLPs (EBOV VP40 (eVP40) VLPs; 20 μM): 2.5 fold
inhibition of egress of Ebola (E) VP40 VLPs (EBOV VP40 (eVP40) VLPs; 40 μM): nearly full inhibition
inhibition of egress of eVP40 VLPs (EBOV VP40 (eVP40) VLPs; 40 μM): 40 fold
target engagement in E-BiMC assay (E-BiMC (Ebola VP40)): showed target engagement
target engagement in M-BiMC assay (mVP40-Nedd4 interaction): showed target engagement

CCNC(=O)NC(=O)CSc1nc2ccccc2nc1C [Compound 3f, N-(ethylcarbamoyl)-2-((3-methylquinoxalin-2-yl)thio)acetamide]
potency relative to 3 in the MVP40 budding assay (MARV VP40 (mVP40) VLPs): as or more potent than 3

Cc1nc2ccccc2nc1SCC(=O)NC(=O)Nc1ccccc1 [Compound 5, 2-((3-methylquinoxalin-2-yl)thio)-N-(phenylcarbamoyl)acetamide]
inhibition of egress of mVP40 VLPs (MARV VP40 (mVP40) VLPs; 0.1 μM): 25 fold
inhibition of egress of mVP40 VLPs (MARV VP40 (mVP40) VLPs; 0.5 μM): 100 fold
inhibition of egress of mVP40 VLPs (MARV VP40 (mVP40) VLPs; 1.0 μM): 100 fold
IC50 (MARV VP40 (mVP40) VLPs; read-out: IC50, anti-budding activity on MVP40): < 0.1 µM
inhibition of egress of VSV-WT (VSV-WT; 0.5 μM): 4 fold
inhibition of egress of eVP40 VLPs (EBOV VP40 (eVP40) VLPs; 0.1 μM): < 2 fold
inhibition of egress of eVP40 VLPs (EBOV VP40 (eVP40) VLPs; 0.5 μM): 3.5 fold
inhibition of egress of eVP40 VLPs (EBOV VP40 (eVP40) VLPs; 1.0 μM): 7 fold
inhibition of egress of LFV Z VLPs (LFV Z VLPs; 0.1 μM): approximately 3 fold
inhibition of egress of LFV Z VLPs (LFV Z VLPs; 0.5 μM): ~5 fold
inhibition of egress of VSV-M40 (VSV-M40; 0.1 μM): 2 fold
inhibition of egress of VSV-M40 (VSV-M40; 0.5 μM): 6 fold
